Experimental data as given in patent US20150328109A1, “DERMAL COMPOSITIONS CONTAINING UNNATURAL HYGROSCOPIC AMINO ACIDS” (MEDPHARM LIMITED, priority 2012, published 2015).
“And” between values parts separate entries of the source, which are not always exact repeats. Equal entries are not always repeated.

Columns and labels:
Psoriatic tissues = test: Tissue viability (MTT) of psoriatic tissue during 6 day treatment; format: cell-based, human; conditions: for Psoriatic tissues as a percentage of untreated control (%): 10% w/v, n = 1; for irritancy conclusion from tissue viability over 6 days: 6 day dosing period
Source text: (§1) A human cell based in vitro psoriatic tissue model consisting of psoriatic fibroblasts and normal keratinocytes was used in this study. […] GM-CSF is a key activator of the innate immune system involved in chronic inflammatory and autoimmune diseases including psoriasis (Löntz et al 1995), where macrophages, granulocytes, neutrophils, eosinophils and dendritic cells can contribute to tissue damage and disease progression (Krinner 2007). GM-CSF stimulates stem cells to produce granulocytes and other macrophages and subsequently activates these differentiated immune cells. GM-CSF has also been identified as an inflammatory mediator in autoimmune disorders with elevated levels of GM-CSF mRNA or protein being measured in a variety of inflammatory sites including in allergic and psoriatic patients, arthritic and asthmatic patients (Plater-Zyberk et al 2008). Numerous in vivo studies over the past few years have shown that blockade of GM-CSF via neutralising antibodies can prevent or even cure pro-inflammatory diseases in various models of inflammation including arthritis experimental autoimmune encephalitis, psoriasis (Schon et al 2000), and lung disease (Plater-Zyberk et al 2008). […] Due to the importance of GM-CSF in psoriasis it was selected for analysis in this study.
In this investigation two types of RHE tissues were used, which were healthy and psoriatic tissue sourced from the MatTek Corporation (Ashland, Mass.). For simplicity the protocol below refers to both tissue types as RHE tissues and all media as assay medium as both tissues were treated in the same manner. The only exception was that two different types of media were required for the different types of tissue (healthy and psoriatic tissues).
• (i) At the end of the equilibration period, the media for each well was removed then the tissues were lifted and placed on culture stands and fresh pre-warmed (37° C.) assay medium (5 mL) was added to the well. • (ii) Using a positive displacement pipette, the test solutions 10% w/v, N-H-S(N-hydroxyserine) in water, […], N-H-G (N-hydroxyglycine) in water, 10% w/v, L-h-S (L-homoserine) in water and 10% w/v, combination 1:1:1 (N-H-S:N-H-G: L-h-S) in water were dispensed (50±0.5 μL) onto the top of the RHE tissue. The solutions or controls were then distributed over the surface of the RHE tissues using a sterile glass rod. • (iii) The lid was placed on the well plate containing the RHE tissue and the tissues were returned to the incubator (37° C., 5% CO2) 48 h between applications.
• (i) Every 48 h culture media for the RHE tissues was removed from the 6 well plates and transferred into tubes stored (−20° C.) for cytokine analysis. • (ii) Fresh pre-warmed (37° C.) assay medium (5 mL) was added to each tissue using an automatic pipette. • (iii) From each treatment 1 tissue was removed for viability assessment. • (iv) The RHE tissues were subsequently rinsed with 100 μL of PBS to remove the residual solution from the epidermal surface. • (v) Using a positive displacement pipette, the solutions 10% w/v, N-H-S in water, 1% w/v, N-H-G in water, 10% w/v, L-h-S in water and 10% w/v, combination 1:1:1 (N-H-S:N-H-G:L-h-S) were dispensed (50±0.5 μL) onto the top of the RHE tissue. The solutions or controls were then distributed over the surface of the RHE tissues using a sterile glass rod. • (vi) The lid was placed on the well plate containing the RHE tissue and the tissues were returned to the incubator (37° C., 5% CO2) 48 h between applications at t=0, 48 and 96 h. […]

GM-CSF = GM-CSF release from in vitro psoriatic tissue model (ELISA); format: cell-based, human; conditions: over 6 days; 10% w/v N-H-S, 1% w/v N-H-G, 10% w/v L-h-S, 10% w/v combination 1:1:1 in water
Source text: as §1
In this investigation two types of RHE tissues were used, which were healthy and psoriatic tissue sourced from the MatTek Corporation (Ashland, Mass.). For simplicity the protocol below refers to both tissue types as RHE tissues and all media as assay medium as both tissues were treated in the same manner. The only exception was that two different types of media were required for the different types of tissue (healthy and psoriatic tissues). […]

[1] = Deliquescence relative humidity (DRH) of a saturated solution in a sealed vessel at 32° C.; format: physicochemical; conditions: saturated solution in water (1 mL), 24 hours, mass used printed beside the name
Procedure: This experiment was to measure the deliquescence relative humidity (DRH) caused by a saturated amino acid solution in a sealed vessel at 32° C.; the lower the DRH, the greater the water holding capacity of the solution measured. Deliquescence relative humidity is the relative humidity at which the compound deliquesces, i.e. the relative humidity in which the compound absorbs so much water that it dissolves within the absorbed water.
The apparatus is maintained at 32° C. The temperature of 32° C. was chosen for being the temperature of outer stratum corneum. As the amino acids are to eventually be delivered to the outer layer of the skin, then the water holding capacity of these compounds at 32° C. is important.
The saturated solution is prepared as above by adding the amino acid to water (1 mL, 32° C.), whilst swirling. The total amino acid is weighed before adding to the water and the remaining amino acid so that the mass of compound used can be determined. The saturated solution (1 mL, 32° C.) is then transferred into the vial, again because of partial molar volume causing a change in volume by the addition of the amino acid to the water.
The temperature and % RH (% Relative Humidity) shown on the thermo-hygrometer are recorded every 30 minutes until the % RH remains constant. The temperature confirms that the temperature experienced by the sample is 32° C.

Row | Compound | Psoriatic tissues as a percentage of untreated control (%) (Psoriatic tissues; 2 days in treatments) | Psoriatic tissues as a percentage of untreated control (%) (Psoriatic tissues; 4 days in treatments) | irritancy conclusion from tissue viability over 6 days (Psoriatic tissues) | irritancy conclusion from tissue viability over 6 days (Psoriatic tissues; listed as N-H-G) | Psoriatic tissues as a percentage of untreated control (%) (Psoriatic tissues; 6 days in treatments) | release of GM-CSF from psoriasis tissues compared to untreated psoriasis tissues (GM-CSF) | DRH [1] | irritancy conclusion from tissue viability over 6 days (Psoriatic tissues; listed as N-H-S)
1 | O=C(O)CNO [N-hydroxyglycine, N-Hydroxyglycine] | 87.1 | 77.6 | non-irritants | non-irritating | 89.6 | reduced | 68.1% | 
2 | O=C(O)[C@H](CO)NO [N-hydroxyserine] | 94.0 | 75.3 | non-irritant |  | 96.0 | reduced | 68.3% | non-irritating
3 | N[C@@H](CCO)C(=O)O [L-homoserine] |  |  | non-irritants |  |  | reduced | 71.4% and 71.37% | 
